Data reported in US20050085556A1, “Detection of cholesterol ozonation products” (priority 2003, published 2005).
Entries after “also recorded” stand apart in the source; their conditions may differ.

What was measured:
J774.1 macrophages = experiment: Lipid-loading assay (foam cell formation); assay type: cell-based, murine; details: LDL 100 μg/mL plus compound 20 μM, 72 h, oil red O stain
Experimental: Lipid-loading assay (foam cell formation). J774.1 macrophages were incubated in ATCC-recommended media containing 10% fetal bovine serum under a controlled atmosphere of 5 or 7% CO2 at 37° C., in 8-well chamber slides. […] At termination, cells were washed twice with PBS (pH 7.4). The cells were then fixed with 6% (v/v) paraformaldehyde in PBS for 30 minutes, rinsed with propylene glycol for 2 minutes and lipids were stained with 5 mg/ml Oil Red O for 8 minutes. The cells were counterstained with Harris' hematoxylin for 45 seconds, and background staining was removed with […] followed by washing once in PBS and once in tap water. Cover slips were mounted onto the glass slides using glycerol and the slide preparations were examined by light microscopy. The number of lipid-laden cells was scored out of a total of at least 100 cells counted in a single field in each slide, and expressed as a percentage of total cells. Photographs were taken at 100×magnification.

LDL (apoB-100) = LDL (apoB-100) (Homo sapiens, UniProt P04114); experiment: Circular dichroism of LDL secondary structure; details: LDL 100 μg/ml with compound 10 μM, PBS pH 7.4, 37° C.; for random coil of LDL protein: normal LDL 27±2%; for α helical structure of LDL protein: normal LDL ~40±2%
Chain of LDL (apoB-100) (P04114 28-4563): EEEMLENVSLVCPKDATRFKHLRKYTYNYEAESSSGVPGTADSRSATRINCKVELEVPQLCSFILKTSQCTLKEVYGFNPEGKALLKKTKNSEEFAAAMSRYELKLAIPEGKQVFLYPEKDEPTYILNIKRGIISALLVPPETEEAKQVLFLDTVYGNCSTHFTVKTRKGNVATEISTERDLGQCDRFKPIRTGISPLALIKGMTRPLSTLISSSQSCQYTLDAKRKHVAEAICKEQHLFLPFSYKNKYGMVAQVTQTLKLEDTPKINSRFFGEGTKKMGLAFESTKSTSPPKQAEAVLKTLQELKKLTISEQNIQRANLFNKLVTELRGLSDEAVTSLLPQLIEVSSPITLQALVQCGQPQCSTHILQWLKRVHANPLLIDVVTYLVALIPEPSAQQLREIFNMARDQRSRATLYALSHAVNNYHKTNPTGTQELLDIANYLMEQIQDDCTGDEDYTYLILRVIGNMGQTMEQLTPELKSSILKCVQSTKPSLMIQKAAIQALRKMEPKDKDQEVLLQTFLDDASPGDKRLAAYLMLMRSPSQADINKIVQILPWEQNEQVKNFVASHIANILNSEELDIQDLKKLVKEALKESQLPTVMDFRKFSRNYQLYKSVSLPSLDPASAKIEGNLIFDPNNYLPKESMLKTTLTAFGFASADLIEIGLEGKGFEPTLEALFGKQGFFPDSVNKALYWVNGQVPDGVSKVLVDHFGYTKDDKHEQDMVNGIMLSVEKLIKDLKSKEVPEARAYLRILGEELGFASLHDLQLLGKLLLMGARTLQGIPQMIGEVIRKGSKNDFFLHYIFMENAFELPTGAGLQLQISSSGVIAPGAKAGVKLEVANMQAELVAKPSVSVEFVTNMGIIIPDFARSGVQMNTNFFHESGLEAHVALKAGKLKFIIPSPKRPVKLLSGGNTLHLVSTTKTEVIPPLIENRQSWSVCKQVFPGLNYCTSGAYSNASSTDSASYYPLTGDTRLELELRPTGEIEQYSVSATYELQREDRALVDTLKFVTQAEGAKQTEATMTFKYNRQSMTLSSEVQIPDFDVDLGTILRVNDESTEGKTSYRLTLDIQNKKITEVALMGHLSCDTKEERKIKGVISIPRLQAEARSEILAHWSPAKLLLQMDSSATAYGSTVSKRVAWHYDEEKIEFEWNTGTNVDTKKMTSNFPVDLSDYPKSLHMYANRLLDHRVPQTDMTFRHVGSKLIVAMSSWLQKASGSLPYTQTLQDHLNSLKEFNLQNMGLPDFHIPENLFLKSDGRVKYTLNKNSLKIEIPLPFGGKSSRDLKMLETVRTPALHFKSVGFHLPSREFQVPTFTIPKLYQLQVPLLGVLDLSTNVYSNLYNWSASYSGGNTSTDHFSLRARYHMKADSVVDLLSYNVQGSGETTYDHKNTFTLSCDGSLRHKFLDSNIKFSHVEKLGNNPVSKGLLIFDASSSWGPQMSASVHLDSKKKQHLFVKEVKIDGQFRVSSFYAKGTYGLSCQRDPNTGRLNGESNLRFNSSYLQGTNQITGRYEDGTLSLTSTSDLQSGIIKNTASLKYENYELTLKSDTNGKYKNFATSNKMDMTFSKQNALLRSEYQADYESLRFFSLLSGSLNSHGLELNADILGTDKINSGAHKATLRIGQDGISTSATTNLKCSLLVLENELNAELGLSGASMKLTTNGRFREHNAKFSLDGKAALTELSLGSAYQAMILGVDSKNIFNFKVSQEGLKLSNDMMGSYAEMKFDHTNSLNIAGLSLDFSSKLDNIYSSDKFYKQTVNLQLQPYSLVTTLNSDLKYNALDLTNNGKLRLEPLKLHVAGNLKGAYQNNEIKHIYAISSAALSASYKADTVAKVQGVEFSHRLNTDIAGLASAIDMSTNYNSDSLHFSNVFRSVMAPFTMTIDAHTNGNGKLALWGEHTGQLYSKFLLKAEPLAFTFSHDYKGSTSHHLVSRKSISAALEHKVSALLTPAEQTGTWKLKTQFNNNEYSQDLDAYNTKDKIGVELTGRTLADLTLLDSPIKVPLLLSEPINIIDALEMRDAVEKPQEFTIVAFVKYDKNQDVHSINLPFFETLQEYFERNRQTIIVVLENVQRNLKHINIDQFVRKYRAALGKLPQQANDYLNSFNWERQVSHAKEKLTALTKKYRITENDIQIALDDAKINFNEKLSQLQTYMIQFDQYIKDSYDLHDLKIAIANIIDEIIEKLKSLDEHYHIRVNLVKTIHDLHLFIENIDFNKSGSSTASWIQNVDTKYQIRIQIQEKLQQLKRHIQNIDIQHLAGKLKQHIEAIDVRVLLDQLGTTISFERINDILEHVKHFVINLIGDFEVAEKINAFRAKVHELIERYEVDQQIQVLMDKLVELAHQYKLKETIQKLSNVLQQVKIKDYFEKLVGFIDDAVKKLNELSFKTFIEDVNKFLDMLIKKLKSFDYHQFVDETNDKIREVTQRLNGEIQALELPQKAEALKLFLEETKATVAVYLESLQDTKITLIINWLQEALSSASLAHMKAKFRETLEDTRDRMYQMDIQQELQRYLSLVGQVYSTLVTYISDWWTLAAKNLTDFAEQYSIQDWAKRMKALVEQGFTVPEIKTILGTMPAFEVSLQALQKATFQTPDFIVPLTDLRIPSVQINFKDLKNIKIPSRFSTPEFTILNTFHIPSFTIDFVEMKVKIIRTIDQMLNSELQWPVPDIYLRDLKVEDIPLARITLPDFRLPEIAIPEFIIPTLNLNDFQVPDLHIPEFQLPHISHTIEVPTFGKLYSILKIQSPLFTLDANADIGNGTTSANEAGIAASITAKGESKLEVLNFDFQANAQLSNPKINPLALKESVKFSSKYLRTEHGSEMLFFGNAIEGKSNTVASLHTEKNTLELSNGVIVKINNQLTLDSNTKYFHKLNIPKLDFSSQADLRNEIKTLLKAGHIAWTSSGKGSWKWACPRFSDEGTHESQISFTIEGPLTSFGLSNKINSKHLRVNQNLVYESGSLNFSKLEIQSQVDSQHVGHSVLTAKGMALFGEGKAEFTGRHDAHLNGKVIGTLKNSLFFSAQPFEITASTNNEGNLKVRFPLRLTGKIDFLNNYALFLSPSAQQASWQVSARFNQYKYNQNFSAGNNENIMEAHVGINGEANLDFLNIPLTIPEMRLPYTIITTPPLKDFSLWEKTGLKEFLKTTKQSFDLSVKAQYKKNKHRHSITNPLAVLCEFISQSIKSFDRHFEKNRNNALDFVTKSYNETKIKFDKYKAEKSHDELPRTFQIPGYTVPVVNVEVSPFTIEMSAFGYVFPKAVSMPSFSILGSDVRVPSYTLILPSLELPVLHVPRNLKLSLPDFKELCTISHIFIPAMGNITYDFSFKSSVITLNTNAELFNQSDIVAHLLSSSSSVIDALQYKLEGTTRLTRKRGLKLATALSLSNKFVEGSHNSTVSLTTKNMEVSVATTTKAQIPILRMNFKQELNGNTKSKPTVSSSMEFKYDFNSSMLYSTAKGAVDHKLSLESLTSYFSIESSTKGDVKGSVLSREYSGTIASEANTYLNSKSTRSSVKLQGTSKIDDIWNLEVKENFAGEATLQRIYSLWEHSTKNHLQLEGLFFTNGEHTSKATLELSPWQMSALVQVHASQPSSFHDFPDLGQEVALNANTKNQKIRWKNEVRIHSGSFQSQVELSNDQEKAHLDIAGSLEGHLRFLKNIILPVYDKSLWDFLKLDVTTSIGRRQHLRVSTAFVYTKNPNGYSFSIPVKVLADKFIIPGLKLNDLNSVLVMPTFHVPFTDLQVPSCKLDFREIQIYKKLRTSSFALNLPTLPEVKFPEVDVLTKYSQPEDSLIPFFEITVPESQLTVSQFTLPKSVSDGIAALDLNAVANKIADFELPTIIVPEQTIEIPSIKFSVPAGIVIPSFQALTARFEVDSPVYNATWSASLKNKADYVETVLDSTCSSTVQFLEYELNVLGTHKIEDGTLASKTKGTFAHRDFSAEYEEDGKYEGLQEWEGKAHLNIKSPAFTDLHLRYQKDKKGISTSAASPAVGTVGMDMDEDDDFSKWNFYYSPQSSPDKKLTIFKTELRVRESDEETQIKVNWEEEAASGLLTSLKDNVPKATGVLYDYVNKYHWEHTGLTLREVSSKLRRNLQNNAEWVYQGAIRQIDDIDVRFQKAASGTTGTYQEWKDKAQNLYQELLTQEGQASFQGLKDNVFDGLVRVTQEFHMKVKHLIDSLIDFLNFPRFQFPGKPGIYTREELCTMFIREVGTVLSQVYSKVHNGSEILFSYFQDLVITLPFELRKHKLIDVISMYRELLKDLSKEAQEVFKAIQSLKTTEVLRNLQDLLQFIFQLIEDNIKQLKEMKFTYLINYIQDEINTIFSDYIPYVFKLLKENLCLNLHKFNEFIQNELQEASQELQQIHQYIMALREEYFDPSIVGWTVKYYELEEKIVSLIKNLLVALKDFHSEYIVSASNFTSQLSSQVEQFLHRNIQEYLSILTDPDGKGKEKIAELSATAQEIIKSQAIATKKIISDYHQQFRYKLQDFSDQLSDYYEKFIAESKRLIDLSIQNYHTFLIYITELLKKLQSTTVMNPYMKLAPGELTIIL
Experimental: Circular dichroism. […] Spectra were recorded in the peptidic range (200-260 nm). To increase the signal-to-noise ratio, multiple spectra (three) were averaged for each measurement.

SMILES	lipid-loading of macrophages (foam cell formation) (J774.1 macrophages)	random coil of LDL protein (LDL (apoB-100))	α helical structure of LDL protein (LDL (apoB-100))
CC(C)CCC[C@@H](C)[C@H]1CCC2C(CC=O)C([C@@]3(C)CC[C@H](O)CC3=O)CC[C@@]21C (stereo partly drawn) [4a, 3β-Hydroxy-5-oxo-5,6-secocholestan-6-al]	macrophages began lipid-loading and foam cells began to appear; also recorded: induces lipid-loading of macrophages to produce foam cells	~39±2%	~23±5%
CC(C)CCC[C@@H](C)[C@H]1CCC2C3C(CC[C@@]21C)[C@@]1(C)CC[C@H](O)C[C@@]1(O)[C@@H]3C=O (stereo partly drawn) [5a, 3β-Hydroxy-5β-hydroxy-B-norcholestane-6β-carboxaldehyde]	macrophages began lipid-loading and foam cells began to appear; also recorded: effect of ozonolysis product 4a upon macrophages was indistinguishable from the effect of ozonolysis product 5a	32±4%	~20±2%
